According to patent publication US20210309631A1, “SALT OF CYCLOHEXANE DERIVATIVE” (priority 2018, published 2021):
Read-outs that look alike come from different tables or passages of the source.

Tests used:
[1] = Crystal form stability on heating (XRPD before and after heating); format: physicochemical
[2] = solubility in water; format: physicochemical
[3] = Hygroscopicity (DVS) experiment, 25° C./80% relative humidity; format: physicochemical; conditions: for Hygroscopicity / Vapor sorption: 25° C./80% relative humidity; for hygroscopicity (summary in words): within one week
Method: Dynamic vapor sorption curves were collected on a DVS Intrinsic by SMS (Surface Measurement Systems).
20 mg sample of the crystal forms of the Examples and Comparative Examples are placed in the environment of 25° C./80% relative humidity for a dynamic vapor sorption (DVS) test, and the test results […] are shown in Table 5.

[4] = Plasma pharmacokinetics in SD rats after single intragastric administration (Example 7); format: in vivo; conditions: intragastric 1 mg/kg; for MRT inf: read-out: MRT0-∞
Method: The in vivo absorption process and characteristics of the free base and four salts thereof (sulfate, hydrochloride salt, phosphate, maleate) of compound (I) in rats were studied. The pharmacokinetics of a single intragastric administration of 1 mg/kg of a compound of Formula I and four salts thereof (calculated by free base concentration in salt form) were studied in SD rats.
SD rats were given a single intragastric administration of 1 mg/kg free base of Example 1 and four salts thereof (including hydrochloride salt from Example 2, sulfate from Example 3, phosphate from Example 4 and maleate from Example 5). There were 4 male rats in each group. The concentration of the compound of Formula I in plasma was determined, and the pharmacokinetic parameters were calculated according to the concentration-time curve.

[5] = In vivo individual difference analysis: individual plasma concentration versus time in rats (Example 8); set-up: species or system SD rats; conditions: intragastric 1 mg/kg; for Plasma Concentrations of Compound of Formula I: listed as Hydrochloride Salt of Compound of Formula I
Method: Compound of Formula I and salts thereof (sulfate, hydrochloride salt, phosphate, maleate), supplied by Shanghai Jingxin Biopharmaceutical Co., Ltd. • Strain: SD rats; Gender: male; Body weight: about 250 grams; Source: shanghai Jiesijie Experimental Animal Co., Ltd Route: single intragastric administration; Capacity: measured in 10 mL/kg body weight Preparation: weighing appropriate amount of the free base or salt of the compound of Formula I, adding a small amount of 0.5% CMC-Na to grind, adding 0.5% CMC-Na to the volume. The concentration is measured as the base. 20 SD rats were divided into 5 groups with 4 rats in each group, fasted for 12 h and drank freely before administration. […] The blood was anticoagulated with 1% heparin, the plasma was separated by 8000 rpm centrifugation for 4 min and stored at -40° C. for testing. LC-MS/MS Method. Pharmacokinetic parameters after administration in rats were calculated using a non-compartmental model of DAS 2.0 software.

[6] = DVS, listed as Example 2 hydrochloride salt
[7] = male, SD, rat, plasma, po, 1 mg/kg, Mean ± SD, non-compartmental model
[8] = male, SD, rat, plasma, po, 1 mg/kg, Mean ± SD, non-compartmental model, read-out: Tmax
[9] = DVS, listed as Example 4 phosphate
[10] = Mean ± SD, non-compartmental model, listed as Phosphate

CN(C)C(=O)N[C@H]1CC[C@H](CCN2CCN(c3cccc4ccsc34)CC2)CC1 [Comparative Example 12, N′-[trans-4-[2-[7-(benzo[b]thiophene)-7-piperazinyl]ethyl]cyclohexyl]-N,N-dimethylurea]
stability of the crystal form ([1]; compared with maleate Form A, after being heated): lower than that of maleate Form A | crystal form after heating ([1]; heated to 150° C. and cooled to room temperature, XRPD): turned to maleate Form A

CN(C)C(=O)N[C@H]1CC[C@H](CCN2CCN(c3cccc4ccsc34)CC2)CC1 [Example 2, N′-[trans-4-[2-[7-(benzo[b]thiophene)-7-piperazinyl]ethyl]cyclohexyl]-N,N-dimethylurea]
solubility in water ([2]; listed as hydrochloride salt Form B): greater than 4.6 mg/ml | Hygroscopicity [3, 6]: Almost no | Vapor sorption [3, 6]: 0.21% | hygroscopicity (summary in words) ([3]; DVS): almost no hygroscopicity or slight hygroscopicity | AUC [4, 7]: 96.9 ± 29.3 ng·h/mL | AUC(0-inf) [4, 7]: 99.1 ± 28.9 ng·h/mL | Cmax [4, 7]: 36.5 ± 13.1 ng/mL | half-life [4, 7]: 4.72 ± 2.66 h | MRT inf [4, 7]: 4.27 ± 2.2 h | Tmax [4, 8]: 0.625 ± 0.25 h | Plasma Concentrations of Compound of Formula I ([5]; 0.333 h after administration, Mean ± SD): 29.4 ± 16.4 ng/mL | Plasma Concentrations of Compound of Formula I ([5]; 0.333 h after administration, rat 1♂): 37.6 ng/mL | Plasma Concentrations of Compound of Formula I ([5]; 0.333 h after administration, rat 2♂): 25.9 ng/mL | Plasma Concentrations of Compound of Formula I ([5]; 0.333 h after administration, rat 3♂): 8.18 ng/mL | Plasma Concentrations of Compound of Formula I ([5]; 0.333 h after administration, rat 4♂): 45.9 ng/mL | Plasma Concentrations of Compound of Formula I ([5]; 0.5 h after administration, Mean ± SD): 35.1 ± 15.6 ng/mL | Plasma Concentrations of Compound of Formula I ([5]; 0.5 h after administration, rat 1♂): 48.3 ng/mL | Plasma Concentrations of Compound of Formula I ([5]; 0.5 h after administration, rat 2♂): 30.6 ng/mL | Plasma Concentrations of Compound of Formula I ([5]; 0.5 h after administration, rat 3♂): 15.0 ng/mL | Plasma Concentrations of Compound of Formula I ([5]; 0.5 h after administration, rat 4♂): 46.4 ng/mL | Plasma Concentrations of Compound of Formula I ([5]; 1 h after administration, rat 1♂): 32.4 ng/mL | Plasma Concentrations of Compound of Formula I ([5]; 1 h after administration, rat 2♂): 25.3 ng/mL | Plasma Concentrations of Compound of Formula I ([5]; 1 h after administration, rat 3♂): 20.8 ng/mL | Plasma Concentrations of Compound of Formula I ([5]; 1 h after administration, rat 4♂): 42.7 ng/mL

CN(C)C(=O)N[C@H]1CC[C@H](CCN2CCN(c3cccc4ccsc34)CC2)CC1 [Example 4, N′-[trans-4-[2-[7-(benzo[b]thiophene)-7-piperazinyl]ethyl]cyclohexyl]-N,N-dimethylurea]
solubility in water ([2]; listed as phosphate Form A): greater than 7.6 mg/ml | Hygroscopicity [3, 9]: Slight | Vapor sorption [3, 9]: 0.61% | MRT0-∞ [4, 10]: 3.06 ± 0.434 h | Tmax [4, 10]: 0.833 ± 0.333 h | t1/2 [4, 10]: 3.25 ± 1.23 h

CN(C)C(=O)N[C@H]1CC[C@H](CCN2CCN(c3cccc4ccsc34)CC2)CC1.O=C(O)/C=C\C(=O)O [Example 5, N′-[trans-4-[2-[7-(benzo[b]thiophene)-7-piperazinyl]ethyl]cyclohexyl]-N,N-dimethylurea]
solubility [2]: > 2600 µg/mL | hygroscopicity compared with other salts ([3]; DVS): less hygroscopic than other salts | Hygroscopicity ([3]; DVS): Almost no | Vapor sorption ([3]; DVS): 0.12% | hygroscopicity (summary in words) ([3]; DVS): almost no hygroscopicity or slight hygroscopicity | The crystal form changes after DVS testing or not ([3]; after DVS testing): No | bioavailability (in words) ([4]; compared with other salts): highly bioavailable | half-life (in words) ([4]; compared with other salts): relatively long half-life | AUC [4, 7]: 124 ± 5.79 ng·h/mL | AUC(0-inf) [4, 7]: 125 ± 7 ng·h/mL | Cmax [4, 7]: 45.4 ± 2.81 ng/mL | half-life [4, 7]: 4.67 ± 2.17 h | MRT inf [4, 7]: 3.07 ± 0.531 h | Tmax [4, 8]: 0.75 ± 0.289 h | individual difference of plasma concentration ([5]; compared with other salts): smallest
